19 compounds from patent publication US6833342B2, “Method of deodorizing and/or cleaning carpet using a composition comprising odor control agent” (The Procter & Gamble Company, priority 1999, dated 2004) can be followed below.

This data set can be described thus: Interaction of perfume components with cyclodextrin (CD interaction). As to conditions: perfume component versus cyclodextrin. The format is physicochemical. An excerpt:
Hydrophobic perfume ingredients have a tendency to complex with the cyclodextrins. The degree of hydrophobicity of a perfume ingredient can be correlated with its octanol/water partition coefficient P. The octanol/water partition coefficient of a perfume ingredient is the ratio between its equilibrium concentration in octanol and in water. A perfume ingredient with a greater partition coefficient P is considered to be more hydrophobic. Conversely, a perfume ingredient with a smaller partition coefficient P is considered to be more hydrophilic. […].
The following table illustrates the molecular weight property of some of the preferred perfume versus non-preferred perfume components.
`CC(=O)OC(C)(C)C1CC=C(C)CC1` (stereo not shown) [Terpinyl Acetate]: the CD interaction result was “significant”.
In the case of `CC(=O)C1(C)CC2=C(CCCC2(C)C)CC1C` (stereo not shown) [Iso-E Super], the CD interaction entry is “weak”.
The same measure for `CC(=O)OC1CCC(C(C)(C)C)CC1` (stereo not shown) [Vertenex, para-tert-butylcyclohexyl acetate]: “strong”.
Take `CCCCCCCCCCCCCC(=O)OC(C)C` [Iso-propyl Myristate]: the CD interaction entry is given as “weak”.
The same measure for `CCCCCC1C(=O)CCC1CC(=O)OC` (stereo not shown) [Methyl Dihydro Jasmonate]: “weak”; for `CCCCCCC(C=O)=Cc1ccccc1` [Hexyl cinnamic Aldehyde]: “weak”.
The value for `CC(=O)C(C)=C(C)C(C)C(C)(C)C` (stereo not shown) [Koavone] was “strong”; that for `CCCCCCOC(=O)c1ccccc1O` [Hexyl Salicylate] was “weak”; that for `CCC(=O)OC1CC2CC1C1CC=CC21` (stereo not shown) [Frutene] was “strong”.
In the case of `O=C(Cc1ccccc1)OCCc1ccccc1` [Phenyl-Ethyl-Phenyl Acetate], the CD interaction result is “weak”.
As for `CC(C)(O)CCCC1=CCC(C=O)CC1` (stereo not shown) [Lyral], the CD interaction entry was “weak”.
The value for `CC(C=O)Cc1ccc(C(C)C)cc1` (stereo not shown) [Cymal] was “strong”; that for `CCOC(=O)c1ccccc1C(=O)OCC` [Diethyl Phthalate] was “weak”.
Take `CC(=O)/C=C/C1C(C)=CCCC1(C)C` (stereo not shown) [a-ionone]: the CD interaction result is on record as “strong”.
The same measure for `CC(=O)OC1CC2CC1C1CC=CC21` (stereo not shown) [Flor Acetate]: “strong”; for `CC(C=O)Cc1ccc(C(C)(C)C)cc1` (stereo not shown) [Lilial, p-t-bucinal]: “strong”.
Consider `CCC(C)(O)CCCC(C)C` (stereo not shown) [Tetrahydrolinalol], for which the CD interaction result is “significant”.
The same measure for a-Me Ionone: “strong”; for `CC1COCc2cc3c(cc21)C(C)(C)C(C)C3(C)C` (stereo not shown) [Galaxolide]: “weak”.
